In patent US11186817B2, “Chemically defined cell culture media additive” (IUCF-HYU (INDUSTRY-UNIVERSITY COOPERATION FOUNDATION …, priority 2014, dated 2021):

System: CHO DG44 cell line
Experiment: Cell line growth in HY-CDM media supplemented with DHF
Type: cell-based, Chinese hamster
Text: 1. Cell line and media: CHO DG44 cell line was used as a DHFR-deficient cell line. The cell line was passaged 80 times or more and suspension adapted in HY-CDM (in-house) media as chemically defined media. The suspension-adapted cell line was used to evaluate the influence of tetrahydrofolate (THF) and dihydrofolate (DHF) and the growth characteristics in commercial chemically defined media. The HY-CDM media were composed of chemically defined components only. Each HY-CDM medium further included a growth factor. HY-CDM media used in Examples 1, 3, and 4 were free of an animal derived lipid mixture, and HY-CDM media used in Example 2 were supplemented with cod liver oil.
2. Cell suspension culture: The cell line was inoculated at a density of 4×10^5 cells/ml and cultured in an Erlenmeyer flask with a 30 ml/125 ml working volume on an orbital shaker at 120 rpm under humidified conditions at 37° C. and 5% CO2. Before inoculation, the cells were centrifuged at 1,000 rpm (×162 g) for 5 min, the supernatant was discarded, and the remaining cells were dispersed into single cells in the heated medium. The cells were passaged three times to minimize the influence of the remaining medium under the experimental conditions. The subcultured cells were evaluated.
3. Density of live cells: The density of live cells was analyzed using a hemocytometer (Neubauer improved bright-line, Marienfeld, Germany), an inverted microscope (CK30, Olympus, Japan), and trypan blue dye exclusion.
DHF was used at the same concentrations as THF. The addition of DHF at concentrations of […] improved cell growth by 11% and 24%, respectively (Table 8), which were about 7 times lower than the addition of THF.

Structure (SMILES): Nc1nc(=O)c2c([nH]1)NCC(CNc1ccc(C(=O)N[C@@H](CCC(=O)O)C(=O)O)cc1)=N2 [DHF, dihydrofolate]
- Increment compared to control (DHF 1.8 μM): 1.5%
- Maximum cell concentration, Average (DHF 1.8 μM): 18.0 ×10^5 cells/ml
- Increment compared to control (DHF 3.6 μM): 11.1%
- Maximum cell concentration, Average (DHF 3.6 μM): 19.7 ×10^5 cells/ml
- Cell growth improvement lower than with the addition of THF (DHF 3.6 μM and 35.9 μM): about 7 times
- Increment compared to control (DHF 35.9 μM): 24.1%
- Maximum cell concentration, Average (DHF 35.9 μM): 22.0 ×10^5 cells/ml
- Improved cell growth (DHF 3.6 M): 11%
- Improved cell growth (DHF 35.9 M): 24%
